Measured values taken from patent publication US8592648B2, “Seed treatment with combinations of pyrethrins/pyrethroids and thiamethoxam” (Monsanto Technology, LLC, priority 2000, dated 2013).

How the values were obtained:
black cutworm larvae = assay: Black cutworm feeding damage on corn shoots and foliage, seed treatment vs soil granular treatment (Reference Example 1); format: in vivo; details: for Plant Defol. 3 DAI / Plant Defol. 7 DAI / Plant Defol. 10 DAI: rating 1=no damage, 10=complete defoliation
Procedure: This example compares the efficacy of seed treatment with lambda-cyhalothrin (CAS #91465-08-6) to soil granular treatments with tefluthrin (CAS #79538-32-2) against feeding damage by black cutworm larvae on shoots and foliage.
(§1) A lambda-cyhalothrin seed treatment formulation was prepared by diluting the WARRIOR® T insecticide (Zeneca Ag Products, Wilmington, Del.), which contains 11.4% lambda-cyhalothrin as the active ingredient, into water as a carrier. This formulation was applied for one minute at room temperature to twenty-five grams of Pioneer corn seed (Cultivar PN3394) in a rotostatic seed treater at a rate of 125 g, 250 g or 500 g active ingredient (Al) to 100 kg seed. The treated seeds were allowed to sit uncapped for four to twenty-four hours before planting.
(§2) Treated and untreated seeds (Pioneer hybrid PN3394) were planted in a soil mix consisting of Dupo silt loam, 30% Perlite, 20% coarse sand (WB-10 grade) in six groups of tubs (20 in. L×15 in. W×8 in. D). Twelve seeds were planted per tub and three tubs were planted for each treatment regimen. Soil applications of FORCE® 3GR, which contains 3% tefluthrin granule as the active ingredient, were used for two sets of tubs containing untreated seeds. The FORCE 3GR was applied either in-furrow or incorporated into a 5 inch band on the soil surface at the time of planting. The tubs were overhead irrigated until the plants were infested with black cutworm larvae.
The rate of application for the FORCE 3GR was reported in units of grams of the active ingredient per hectare (g/ha), while the rate of application of the WARRIOR T to the seeds was reported in units of grams of the active ingredient per 100 kilograms of the seeds (g/100 kg). Although the conversion of one of these units to the other will vary somewhat according to the type of seed that is being used, the size and weight of the seed, and the density of planting that is used—among other things—an approximate conversion for corn seed can be carried out as follows. Assuming a seed application rate of lambda cyhalothrin of, for example, 125 g/100 kg of seed and a planting density of 15 lbs seed/ac, about 14.7 acres can be planted with 100 kg of the seed. This is an effective application rate of about 8.5 g of lambda cyhalthrin per acre. At 2.47 ac/ha, the seed treatment level of 125 g/100 kg is approximately equivalent to a surface banding treatment at about 21 g/ha.
The corn plants were infested at 12 DAP, which corresponds to late growth stage V1 by placing two black cutworm larvae at ¾ instar on the soil surface near the base of the plant. Plants were rated 3, 7 and 10 days after infestation (DAI) for the number of cut plants, as well as damage from leaf feeding. The percent stand reduction due to plant cutting was calculated by dividing the number of cut plants into the number of plants present at infestation. The foliar feeding injury was evaluated using a rating scale of 1=no damage and 10=complete defoliation.

[1] = system: corn plants (Pioneer hybrid PN3394); assay: Vigor rating of corn plants before infestation (indication of phytotoxicity); format: in vivo; details: rating 1=extremely low vigor, 10=highest
Procedure: as §1, §2
At twelve days after planting (DAP) but before infestation, the overall health of each plant was rated by looking at emergence, height and appearance. This vigor rating gives an indication of any phytotoxicity from the seed or soil treatment. A rating of 1 indicates extremely low vigor while 10 is the highest vigor rating.

Cc1c(F)c(F)c(COC(=O)[C@@H]2[C@H](/C=C(\Cl)C(F)(F)F)C2(C)C)c(F)c1F (racemic) [Tefluthrin, (2,3,5,6-tetrafluoro-4-methylphenyl)-methyl-(1 alpha, 3 alpha)-(Z)-(±)-3-(2-chloro-3,3,3-trifluoro-1-propenyl)-2,2-dimethylcyclopropanecarboxylate]
% Stand Reduct'n 3 DAI (black cutworm larvae; banded 30 g/ha (FORCE 3GR)): 0.0%
Vigor at 12 DAP ([1]; banded 30 g/ha (FORCE 3GR)): 8.7
Vigor at 12 DAP ([1]; in-furrow 30 g/ha (FORCE 3GR)): 9.0

CC1(C)[C@H](C(=O)O[C@H](C#N)c2cccc(Oc3ccccc3)c2)[C@@H]1/C=C(\Cl)C(F)(F)F [λ-cyhalothrin, [1 alpha(s), 3 alpha(z)]-cyano(3-phenoxyphenyl) methyl-3-(2-chloro-3,3,3-trifluoro-1-propenyl)-2,2-dimethylcyclopropane carboxylate]
Plant Defol. 3 DAI (black cutworm larvae; seed treatment 125 g/100 kg): 4.3
Plant Defol. 7 DAI (black cutworm larvae; seed treatment 125 g/100 kg): 5.0
Plant Defol. 10 DAI (black cutworm larvae; seed treatment 125 g/100 kg): 3.3
% Stand Reduct'n 3 DAI (black cutworm larvae; seed treatment 250 g/100 kg): 3.0%
Plant Defol. 3 DAI (black cutworm larvae; seed treatment 250 g/100 kg): 3.7
% Stand Reduct'n 7 DAI (black cutworm larvae; seed treatment 250 g/100 kg): 3.0%
% Stand Reduct'n 7 DAI (black cutworm larvae; seed treatment 250 g/100 kg, listed as lambda-cyhalothrin): 3%
Plant Defol. 7 DAI (black cutworm larvae; seed treatment 250 g/100 kg): 2.7
% Stand Reduct'n 10 DAI (black cutworm larvae; seed treatment 250 g/100 kg): 3.0%
Plant Defol. 10 DAI (black cutworm larvae; seed treatment 250 g/100 kg): 1.7
% Stand Reduct'n 3 DAI (black cutworm larvae; seed treatment 500 g/100 kg): 0.0%
Plant Defol. 3 DAI (black cutworm larvae; seed treatment 500 g/100 kg): 2.0
% Stand Reduct'n 7 DAI (black cutworm larvae; seed treatment 500 g/100 kg): 0.0%
% Stand Reduct'n 7 DAI (black cutworm larvae; seed treatment 500 g/100 kg, listed as lambda-cyhalothrin): 0%
Plant Defol. 7 DAI (black cutworm larvae; seed treatment 500 g/100 kg): 2.3
% Stand Reduct'n 10 DAI (black cutworm larvae; seed treatment 500 g/100 kg): 0.0%
Plant Defol. 10 DAI (black cutworm larvae; seed treatment 500 g/100 kg): 1.0
protection of corn plants against shoot/foliar feeding damage by black cutworm (black cutworm larvae; seed treatment prior to planting): significant protection
Vigor at 12 DAP ([1]; seed treatment 125 g/100 kg): 9.0
Vigor at 12 DAP ([1]; seed treatment 250 g/100 kg): 8.3
Vigor at 12 DAP ([1]; seed treatment 500 g/100 kg): 8.3
